{"source": "patent US8153693B2", "about": "“Compounds for the selective treatment of the intestinal immuno-inflammatory component of the celiac disease” (Giuliani International Limited, priority 2007, dated 2012)", "system": "IL-2", "experiment": "Cytokine assay (ELISA) in culture liquids of duodenal biopsy organ cultures: IL-2", "assay_type": "cell-based, human", "details": "for IL-2, PT + 5ASA C, Mean / IL-2, PT + 5ASA C, Median: peptic-tryptic digest of gliadin (PT)", "method": "3 groups of subjects were evaluated. The first (atrophic) group included 29 subjects with serum tests positive to antiendomysium and anti-transglutaminase antibodies, with a neo-diagnosis of celiac disease and gluten-containing diet. The second (Remission) group included 17 celiac disease subjects in clinical remission and gluten-free diet for at least 6 months. The third (Healthy) group included subjects not suffering from the celiac disease but suffering from inflammation of the gastro-enteric tract. […] The biopsies were washed in saline for two minutes at least three times. […] Three different amounts of medium are shared for the ELISA assay of Th1 and Th2 cytokines released in culture media.", "key": {"[1]": {"details": "Atrophic population, N 15, Wilcoxon p = 0.012"}, "[2]": {"details": "Atrophic population, N 15, Wilcoxon p = 0.03"}, "[3]": {"details": "Positive control population, N 7"}, "[4]": {"details": "Positive control population, N 7, Wilcoxon p = 0.07"}, "[5]": {"details": "Positive control population, N 7, Wilcoxon p = N.S."}, "[6]": {"details": "Remission population, N 12, Wilcoxon p = N.S."}}}
{"smiles": "Nc1ccc(O)c(C(=O)O)c1", "note": "[Compound 5ASA, mesalazine]", "values": [{"measurement": "IL-2, Medium + 5ASA C, Mean", "setting": "Atrophic population, N 15", "value": 0.119}, {"measurement": "IL-2, Medium + 5ASA C, Median", "setting": "Atrophic population, N 15", "value": 0.0910}, {"measurement": "IL-2, Difference PT C/PT + 5ASA C, Mean", "setting": "[1]", "value": 0.0270}, {"measurement": "IL-2, Difference PT C/PT + 5ASA C, Median", "setting": "[1]", "value": 0.0410}, {"measurement": "IL-2, Difference Medium C/Medium + 5ASA C, Mean", "setting": "[2]", "value": 0.0559}, {"measurement": "IL-2, Difference Medium C/Medium + 5ASA C, Median", "setting": "[2]", "value": 0.0490}, {"measurement": "IL-2, PT + 5ASA C, Mean", "setting": "Atrophic population, N 15", "value": 0.124}, {"measurement": "IL-2, PT + 5ASA C, Median", "setting": "Atrophic population, N 15", "value": 0.0770}, {"measurement": "IL-2, Medium + 5ASA C, Mean", "setting": "[3]", "value": 0.356}, {"measurement": "IL-2, Medium + 5ASA C, Median", "setting": "[3]", "value": 0.379}, {"measurement": "IL-2, Difference Medium C/Medium + 5ASA C, Mean", "setting": "[4]", "value": 0.116}, {"measurement": "IL-2, Difference Medium C/Medium + 5ASA C, Median", "setting": "[4]", "value": 0.247}, {"measurement": "IL-2, Difference PT C/PT + 5ASA C, Mean", "setting": "[5]", "value": "−0.020"}, {"measurement": "IL-2, Difference PT C/PT + 5ASA C, Median", "setting": "[5]", "value": 0.0210}, {"measurement": "IL-2, PT + 5ASA C, Mean", "setting": "[3]", "value": 0.521}, {"measurement": "IL-2, PT + 5ASA C, Median", "setting": "[3]", "value": 0.468}, {"measurement": "IL-2, Medium + 5ASA C, Mean", "setting": "Remission population, N 12", "value": 0.309}, {"measurement": "IL-2, Medium + 5ASA C, Median", "setting": "Remission population, N 12", "value": 0.253}, {"measurement": "IL-2, Difference Medium C/Medium + 5ASA C, Mean", "setting": "[6]", "value": 0.0061}, {"measurement": "IL-2, Difference Medium C/Medium + 5ASA C, Median", "setting": "[6]", "value": "5E−4"}, {"measurement": "IL-2, Difference PT C/PT + 5ASA C, Mean", "setting": "[6]", "value": 0.0365}, {"measurement": "IL-2, Difference PT C/PT + 5ASA C, Median", "setting": "[6]", "value": 0.0260}, {"measurement": "IL-2, PT + 5ASA C, Mean", "setting": "Remission population, N 12", "value": 0.234}, {"measurement": "IL-2, PT + 5ASA C, Median", "setting": "Remission population, N 12", "value": 0.194}]}
